# Like-named read-outs stand apart in the source and are kept apart here.
# Assays:
# [1] = target: T1, cholecystokinin receptors of ox gallbladder membranes (Bos taurus, UniProt A6QLH2); experiment: Inhibition of the binding of [125-I]-Bolton Hunter-CCK-8 to ox gallbladder membranes; details: pH 7.4, 2 h at 25° C., read-out: IC50, inhibition of the binding of (^125 I)-(B-H)-CCK-8
# T1 construct: The ox gallbladder cell membranes were homogenised with Tris buffer (pH 7.4); from tissue; host or cells: ox gallbladder cell membranes
# T1 sequence (A6QLH2 1-427): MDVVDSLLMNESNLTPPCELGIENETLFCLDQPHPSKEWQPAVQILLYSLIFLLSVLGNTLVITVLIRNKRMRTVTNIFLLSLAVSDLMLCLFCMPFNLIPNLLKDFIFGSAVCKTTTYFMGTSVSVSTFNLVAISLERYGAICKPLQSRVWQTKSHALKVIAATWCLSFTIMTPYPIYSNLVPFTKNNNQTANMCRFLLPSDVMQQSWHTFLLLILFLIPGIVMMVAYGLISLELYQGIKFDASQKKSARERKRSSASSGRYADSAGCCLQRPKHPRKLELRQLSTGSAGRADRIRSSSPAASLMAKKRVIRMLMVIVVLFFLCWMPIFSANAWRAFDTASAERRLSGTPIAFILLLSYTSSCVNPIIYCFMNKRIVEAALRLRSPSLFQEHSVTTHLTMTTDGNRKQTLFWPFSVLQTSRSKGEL
# Experimental: The ox gallbladder cell membranes were homogenised with Tris buffer (pH 7.4) and the homogenate was centrifuged at 50,000 gravity for 10 minutes. The membranes were then incubated with a radioactive tracer and the compounds under study for 2 h at 25° C.
# After the supernatant liquid had been discarded, the radioactivity associated with the pellet was determined with a liquid scintillator. The specific binding was determined as the difference between the binding in the absence and in the presence of 10^-6 M CCK-8.
# [2] = tested on: piloric contraction induced by CCK; experiment: Antispastic activity on piloric contraction induced by CCK in rats; type: in vivo, rat; details: for ED50: ip, rat, 8 mcg/kg i.p. CCK, compound i.p. 15 minutes before, read-out: ID50, antispastic activity on piloric contraction induced by CCK
# Experimental: A dose of 8 mcg/kg i.p. of CCK was used, which induces a sub-maximal contraction of the pilorus.
# The antagonistic compounds were administered (i.p.) 15 minutes before the contractant. 10 minutes after the administration of the contractant, the animals were treated per os with 25 ml/kg of H2 O. 5 minutes after this administration, the animals were killed, their stomachs removed and the gastric content measured by removal with a syringe.
# The % antispactic activity for each dose administered was calculated from the following formula: [formula] where V1 =the gastric-content volume of the group of animals treated with the drug plus the contractant
# V2 =the gastric-content volume of the group of animals treated with the contractant only
# V3 =the gastric-content volume of the control group of animals.
# The compounds were tested at various doses so as to enable the calculation of the ID50 value, that is the dose (in mg/kg i.p.) which is able to inhibit the contractant effect of CCK by 50%.
# The results obtained are given in Table 7, where the effects obtained are expressed as the ID50.
# [3] = tested on: gallbladder contraction induced by egg yolk; experiment: Antispastic activity on the gallbladder in mice (gallbladder emptying induced by egg yolk); type: in vivo; details: for ED50: Mus musculus, ip, read-out: ID50, antispastic activity on gallbladder contraction induced by egg yolk
# Experimental: The emptying of the gallbladder was induced by a single oral administration of 1 ml of a 30% suspension (weight/volume) of lyophilised egg yolk in a physiological solution.
# Once it has been absorbed, the egg yolk, as stated above, induces the release of endogenous CCK.
# The antagonist compounds were administered intraperitoneally (i.p.) 15 minutes before the contractant.
# The % antispastic activity for each dose was calculated by the following formula: [formula] where P1 =average weight of the gallbladders of the group of animals treated with the drug plus the contractant
# P2 =average weight of the gallbladders of the group of animals treated with contractant only
# P3 =average weight of the gallbladders of the control group of animals.
# [4] = tested on: experimental pancreatitis induced by taurocholate; experiment: Pancreatitis induced by sodium taurocholate; type: in vivo, rats; details: for ED50: Rattus norvegicus, ip, 6 h
# Experimental: The method described by Aho et al. (Scandinavian J. Gastroenterology 15 (1980), 411-16) was followed
# Male rats weighing approximately 250 g were subjected to laparatomy and the pancreas exposed. 0.3 ml of a 6% solution of sodium taurocholate was injected directly into the pancreatic tissue.
# The products under test were administered intraperitoneally (i.p.) 30 minutes before the operation and 3 hours after the operation. 6 hours after the laparotomy and after anesthesia with ether, blood was removed from the retro-orbital plexus, the animals were killed and the pancreas removed and weighed. The activity of the serum amylase was determined by the Ceska method (Clin. Chim. Acta 26 (1969), 437-444).
# The compounds were tested at different doses so as to enable the calculation of the ID50 value, that is the dose (in mg/kg i.p.) which is able to inhibit the toxic effect of the sodium taurocholate by 50%, expressed both as a % inhibition of the increase in weight of the pancreas and as a % inhibition of the increase in serum amylase.
# [5] = mice, i.p. 15 minutes before egg yolk
# [6] = 30 min before and 3 h after operation, read-out: ID50, inhibition of the increase in serum amylase
# [7] = 30 min before and 3 h after operation, read-out: ID50, inhibition of the increase in weight of the pancreas
# [8] = 5 mg/kg i.p. (second dose of compound 8) + taurocholate
# [9] = 5 mg/kg i.p. (third dose of compound 8) + taurocholate
compound,measurement,setting,value
CCCCCN(CCCOC)C(=O)[C@@H](CCC(=O)O)NC(=O)c1ccc2ccccc2c1 [Compound 10],IC50,[1],6.2 nM
CCCCCN(CCCCC)C(=O)[C@@H](CCC(=O)O)NC(=O)c1ccc2ccccc2c1 [Compound 7],% inhibition of piloric contraction,[2]; 0.01 mg/kg i.p.,27.7%
same,% inhibition of piloric contraction,[2]; 0.03 mg/kg i.p.,48.8%
same,% inhibition of piloric contraction,[2]; 0.1 mg/kg i.p.,80.8%
same,ED50,[2],0.03 mg/kg
same,% inhibition of the emptying of the gallbladder,[3]; 0.025 mg/kg i.p.,24.0%
same,% inhibition of the emptying of the gallbladder,[3]; 0.05 mg/kg i.p.,44.2%
same,ED50,[3]; [5],0.05 mg/kg
same,% inhibition increase in amylase,[4]; 0.3 mg/kg i.p. + taurocholate,42.2%
same,% inhibition of weight increase (pancreas),[4]; 0.3 mg/kg i.p. + taurocholate,36.4%
same,% ratio pancreas weight / animal weight,[4]; 0.3 mg/kg i.p. + taurocholate,0.47%
same,Amylase in the serum,[4]; 0.3 mg/kg i.p. + taurocholate,12.0 U/ml
same,% inhibition increase in amylase,[4]; 1 mg/kg i.p. + taurocholate,79.7%
same,% inhibition of weight increase (pancreas),[4]; 1 mg/kg i.p. + taurocholate,54.5%
same,% ratio pancreas weight / animal weight,[4]; 1 mg/kg i.p. + taurocholate,0.45%
same,Amylase in the serum,[4]; 1 mg/kg i.p. + taurocholate,9.6 U/ml
same,% inhibition increase in amylase,[4]; 3 mg/kg i.p. + taurocholate,89.0%
same,% inhibition of weight increase (pancreas),[4]; 3 mg/kg i.p. + taurocholate,90.8%
same,% ratio pancreas weight / animal weight,[4]; 3 mg/kg i.p. + taurocholate,0.41%
same,Amylase in the serum,[4]; 3 mg/kg i.p. + taurocholate,9.0 U/ml
same,ED50,"[4]; both parameters, read-out: dose inhibiting the increase in weight of the pancreas and the increase in serum amylase by 50%",~0.5 mg/kg
same,ED50,[4]; [6],0.4 mg/kg
same,ED50,[4]; [7],0.6 mg/kg
same,IC50,[1],1 nM
CCCCCN(CCCCC)C(=O)[C@@H](CCC(=O)O)NC(=O)c1ccc(C)c(C)c1 [Compound 9],IC50,[1],44 nM
CCCCCN(CCCCC)C(=O)[C@H](CCC(=O)O)NC(=O)c1ccc(Cl)c(Cl)c1 [Compound 14],IC50,[1],450 nM
CCCCCN(CCCCC)C(=O)[C@@H](CCC(=O)O)NC(=O)c1ccc(Cl)c(Cl)c1 [Compound 8],% inhibition of piloric contraction,[2]; 0.03 mg/kg i.p.,29.8%
same,% inhibition of piloric contraction,[2]; 0.1 mg/kg i.p.,48.0%
same,% inhibition of piloric contraction,[2]; 0.3 mg/kg i.p.,68.1%
same,ED50,[2],0.11 mg/kg
same,% inhibition of the emptying of the gallbladder,[3]; 0.1 mg/kg i.p.,25.2%
same,% inhibition of the emptying of the gallbladder,"[3]; 0.1 mg/kg i.p. as printed (third, highest dose of compound 8)",86.3%
same,% inhibition of the emptying of the gallbladder,[3]; 0.3 mg/kg i.p.,53.2%
same,ED50,[3]; [5],0.25 mg/kg
same,% inhibition increase in amylase,[4]; 1 mg/kg i.p. + taurocholate,40.7%
same,% inhibition of weight increase (pancreas),[4]; 1 mg/kg i.p. + taurocholate,35.3%
same,% ratio pancreas weight / animal weight,[4]; 1 mg/kg i.p. + taurocholate,0.48%
same,Amylase in the serum,[4]; 1 mg/kg i.p. + taurocholate,12.7 U/ml
same,% inhibition increase in amylase,[4]; [8],76.5%
same,% inhibition of weight increase (pancreas),[4]; [8],52.5%
same,% ratio pancreas weight / animal weight,[4]; [8],0.45%
same,Amylase in the serum,[4]; [8],9.8 U/ml
same,% inhibition increase in amylase,[4]; [9],86.4%
same,% inhibition of weight increase (pancreas),[4]; [9],82.3%
same,% ratio pancreas weight / animal weight,[4]; [9],0.40%
same,Amylase in the serum,[4]; [9],9.0 U/ml
same,ED50,[4]; [6],1.2 mg/kg
same,ED50,[4]; [7],1.8 mg/kg
same,IC50,[1],7.5 nM
CCCCCN(CCCCC)C(=O)[C@H](CCC(=O)O)NC(=O)c1ccc2ccccc2c1 [Compound 13],% inhibition of piloric contraction,[2]; 1 mg/kg i.p.,17.7%
same,% inhibition of piloric contraction,[2]; 3 mg/kg i.p.,39.0%
same,% inhibition of piloric contraction,[2]; 5 mg/kg i.p.,54.2%
same,ED50,[2],4.55 mg/kg
same,"active dose, times higher than compound 7",[2]; piloric contraction,approximately 150 times
same,% inhibition of the emptying of the gallbladder,[3]; 1 mg/kg i.p.,18.8%
same,% inhibition of the emptying of the gallbladder,[3]; 3 mg/kg i.p.,47.7%
same,% inhibition of the emptying of the gallbladder,[3]; 9 mg/kg i.p.,80.2%
same,ED50,[3]; [5],3.2 mg/kg
same,IC50,[1],61 nM
CCK-8: cold (unmarked) CCK [reference compound],IC50,[1],0.2 nM
CCCCCN(CCCOC)C(=O)[C@@H](CCC(=O)O)NC(=O)c1ccc(Cl)c(Cl)c1 [Compound 11],IC50,[1],30 nM
CCCCCN(CCCOC)C(=O)[C@H](CCC(=O)O)NC(=O)c1ccc2ccccc2c1 [Compound 16],IC50,[1],560 nM
"COc1ccc(Cc2nccc3cc(OC)c(OC)cc23)cc1OC [PAPAVERINE, reference compound]",% inhibition of the emptying of the gallbladder,[3]; 25 mg/kg i.p.,0%
same,% inhibition of the emptying of the gallbladder,[3]; 50 mg/kg i.p.,0%
same,% inhibition of the emptying of the gallbladder,[3]; 75 mg/kg i.p.,26.1%
same,"ID50, antispastic activity on gallbladder contraction induced by egg yolk",[3]; [5],INACTIVE
same,"antispastic activity on the gallbladder, in words",[3]; only at 75 mg/kg,slightly active
CCCCCN(CCCCC)C(=O)[C@H](CCC(=O)O)NC(=O)c1ccc(C)c(C)c1 [Compound 15],IC50,[1],2200 nM
CCCCCN(CCOCC)C(=O)[C@@H](CCC(=O)O)NC(=O)c1ccc2ccccc2c1 [Compound 12],IC50,[1],9.3 nM

# — patent publication US5130474A, “Optically-active derivatives of (R) 5-pentylamino-5-oxopentanoic acid with antagonistic activity towards cholecystokin in and a method for their preparation” (Rotta Research Laboratorium SpA, priority 1987, dated 1992)
